The test system of data set [1] is conjunctival epithelial (ConjE) cells. In words: MTS cell viability assay in ConjE cells. It counts as cell-based, human. Conditions: 48 h; isorhamnetin 30 μM, Triton X-100 0.01%. The protocol: (§1) Immortalized human CorE [47] and immortalized human ConjE (Innoprot, Bizkaia, Spain) cells were plated on 96-well microplates. After 24 h incubation, cells were treated with 30 μM isorhamnetin or 0.01% Triton X-100 and then they were incubated for two days. An equal amount of DMSO was added to the control. The culture medium and the compounds were changed every 12 h. To assess cell proliferation, after 48 h of incubation with the compound, the cells were reincubated with MTS for 1 h. The soluble formazan produced by cellular reduction of MTS was quantified by measuring the absorbance at 490 nm with Infinite M200 (Tecan, Grödig, Austria) microplate reader. MTS assay was done using CellTiter 96 AQueous One Solution Cell Proliferation Assay kit (Promega, Madison, WI, USA).
(Formazan colour is commonly taken as a measure of viable cells.)

The subject of data set [2] is corneal epithelial (CorE) cells. In words: MTS cell viability assay in CorE cells. Conditions: 48 h; isorhamnetin 30 μM, Triton X-100 0.01%. The format is cell-based, human. The protocol:
as §1

Another data set concerns the target WT-CFTR (Homo sapiens, UniProt P13569). In words: Whole-cell patch clamp in CHO-K1 cells expressing WT-CFTR. It counts as cell-based. The arrangement: expressed in transfected cells; host or cells: CHO-K1. Conditions: 10 μM CFTRinh-172. The protocol:
Whole-cell, patch clamp recordings were performed on CFTR-expressing CHO cells. The bath solution contained (in mM) 140 NMDG-Cl, 1 CaCl2, 1 MgCl2, 10 glucose, and 10 HEPES (pH 7.4). The pipette solution contained (in mM) 130 CsCl, 0.5 EGTA, 1 MgCl2, 1 Tris-ATP, and 10 HEPES (pH 7.2). […] Seal resistances were between 3 and 10 GΩ. After establishing the whole-cell configuration, CFTR was activated by forskolin and/or isorhamnetin. […] Recordings were made at room temperature using an Axopatch-200B (Axon Instruments, San Jose, CA, USA). Currents were digitized with a Digidata 1440A converter (Axon Instruments), filtered at 5 kHz, and sampled at 1 kHz.

Another data set concerns CD-1 mice. In words: Tear volume by phenol red thread tear test in normal CD-1 mice. The format is in vivo, mouse. Conditions: isorhamnetin 30 µM with CFTRinh-172 20 µM. The protocol: Tear volume was measured using phenol red threads (Zone-Quick, Oasis Medical, Glendora, CA, USA) by placing them in the lateral canthi of normal CD-1 or dry eye model-treated BL6 mice for 10 s using forceps. Tear volume was measured using a Vernier caliper as the length of thread wetting under a microscope. For normal CD-1 mice, serial measurements were done to evaluate compound pharmacodynamics compared to the vehicle after topical application of a single, 2.5-μL drop of compound formulations containing 20 μM forskolin, 30 μM isorhamnetin, or 20 μM CFTRinh-172 in PBS with 0.1% DMSO.

Another data set deals with T1, CFTR (Mus musculus, UniProt P26361).
T1 construct: from tissue; host or cells: ocular surface of anesthetized CD-1 mice (in vivo)
T1 sequence (P26361 whole entry): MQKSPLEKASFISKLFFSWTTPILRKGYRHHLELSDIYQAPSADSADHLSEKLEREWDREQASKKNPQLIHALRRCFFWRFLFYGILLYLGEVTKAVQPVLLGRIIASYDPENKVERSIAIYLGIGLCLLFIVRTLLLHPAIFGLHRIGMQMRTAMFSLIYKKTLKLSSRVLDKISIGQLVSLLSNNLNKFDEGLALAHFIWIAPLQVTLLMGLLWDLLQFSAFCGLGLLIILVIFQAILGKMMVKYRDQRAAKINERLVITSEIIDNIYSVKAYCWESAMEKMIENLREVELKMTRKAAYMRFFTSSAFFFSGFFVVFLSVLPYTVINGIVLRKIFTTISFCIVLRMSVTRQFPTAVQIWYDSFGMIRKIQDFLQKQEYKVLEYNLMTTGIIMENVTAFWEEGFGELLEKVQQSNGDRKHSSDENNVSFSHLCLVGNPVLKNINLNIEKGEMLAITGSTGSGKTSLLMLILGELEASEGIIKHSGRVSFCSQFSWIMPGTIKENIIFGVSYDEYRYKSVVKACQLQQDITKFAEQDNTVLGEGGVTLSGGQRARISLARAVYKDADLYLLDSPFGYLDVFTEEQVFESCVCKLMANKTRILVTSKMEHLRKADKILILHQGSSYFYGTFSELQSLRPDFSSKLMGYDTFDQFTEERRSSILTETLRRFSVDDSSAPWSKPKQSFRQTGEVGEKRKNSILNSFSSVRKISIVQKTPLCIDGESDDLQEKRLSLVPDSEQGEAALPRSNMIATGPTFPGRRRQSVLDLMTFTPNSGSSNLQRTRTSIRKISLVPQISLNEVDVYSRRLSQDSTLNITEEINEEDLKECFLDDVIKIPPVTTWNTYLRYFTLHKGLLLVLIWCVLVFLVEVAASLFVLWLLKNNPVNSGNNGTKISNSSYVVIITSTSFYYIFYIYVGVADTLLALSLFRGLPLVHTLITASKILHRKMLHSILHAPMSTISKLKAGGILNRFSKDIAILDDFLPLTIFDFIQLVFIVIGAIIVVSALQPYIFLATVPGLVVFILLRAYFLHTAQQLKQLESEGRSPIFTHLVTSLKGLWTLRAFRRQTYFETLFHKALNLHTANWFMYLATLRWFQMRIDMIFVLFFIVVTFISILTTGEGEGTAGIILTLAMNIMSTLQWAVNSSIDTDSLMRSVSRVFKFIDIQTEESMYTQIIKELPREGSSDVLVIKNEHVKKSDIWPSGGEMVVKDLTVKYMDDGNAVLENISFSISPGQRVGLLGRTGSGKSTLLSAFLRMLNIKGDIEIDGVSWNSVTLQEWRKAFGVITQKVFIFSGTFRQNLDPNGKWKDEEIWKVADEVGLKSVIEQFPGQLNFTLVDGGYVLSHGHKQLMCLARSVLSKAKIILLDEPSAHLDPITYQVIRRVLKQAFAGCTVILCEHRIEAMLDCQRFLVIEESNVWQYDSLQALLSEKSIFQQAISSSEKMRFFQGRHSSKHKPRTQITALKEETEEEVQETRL
In words: Open-circuit ocular surface potential difference (PD) in CD-1 mice. Conditions: 20 μM CFTRinh-172. The format is in vivo.

WT-CFTR, sequence (P13569 whole entry): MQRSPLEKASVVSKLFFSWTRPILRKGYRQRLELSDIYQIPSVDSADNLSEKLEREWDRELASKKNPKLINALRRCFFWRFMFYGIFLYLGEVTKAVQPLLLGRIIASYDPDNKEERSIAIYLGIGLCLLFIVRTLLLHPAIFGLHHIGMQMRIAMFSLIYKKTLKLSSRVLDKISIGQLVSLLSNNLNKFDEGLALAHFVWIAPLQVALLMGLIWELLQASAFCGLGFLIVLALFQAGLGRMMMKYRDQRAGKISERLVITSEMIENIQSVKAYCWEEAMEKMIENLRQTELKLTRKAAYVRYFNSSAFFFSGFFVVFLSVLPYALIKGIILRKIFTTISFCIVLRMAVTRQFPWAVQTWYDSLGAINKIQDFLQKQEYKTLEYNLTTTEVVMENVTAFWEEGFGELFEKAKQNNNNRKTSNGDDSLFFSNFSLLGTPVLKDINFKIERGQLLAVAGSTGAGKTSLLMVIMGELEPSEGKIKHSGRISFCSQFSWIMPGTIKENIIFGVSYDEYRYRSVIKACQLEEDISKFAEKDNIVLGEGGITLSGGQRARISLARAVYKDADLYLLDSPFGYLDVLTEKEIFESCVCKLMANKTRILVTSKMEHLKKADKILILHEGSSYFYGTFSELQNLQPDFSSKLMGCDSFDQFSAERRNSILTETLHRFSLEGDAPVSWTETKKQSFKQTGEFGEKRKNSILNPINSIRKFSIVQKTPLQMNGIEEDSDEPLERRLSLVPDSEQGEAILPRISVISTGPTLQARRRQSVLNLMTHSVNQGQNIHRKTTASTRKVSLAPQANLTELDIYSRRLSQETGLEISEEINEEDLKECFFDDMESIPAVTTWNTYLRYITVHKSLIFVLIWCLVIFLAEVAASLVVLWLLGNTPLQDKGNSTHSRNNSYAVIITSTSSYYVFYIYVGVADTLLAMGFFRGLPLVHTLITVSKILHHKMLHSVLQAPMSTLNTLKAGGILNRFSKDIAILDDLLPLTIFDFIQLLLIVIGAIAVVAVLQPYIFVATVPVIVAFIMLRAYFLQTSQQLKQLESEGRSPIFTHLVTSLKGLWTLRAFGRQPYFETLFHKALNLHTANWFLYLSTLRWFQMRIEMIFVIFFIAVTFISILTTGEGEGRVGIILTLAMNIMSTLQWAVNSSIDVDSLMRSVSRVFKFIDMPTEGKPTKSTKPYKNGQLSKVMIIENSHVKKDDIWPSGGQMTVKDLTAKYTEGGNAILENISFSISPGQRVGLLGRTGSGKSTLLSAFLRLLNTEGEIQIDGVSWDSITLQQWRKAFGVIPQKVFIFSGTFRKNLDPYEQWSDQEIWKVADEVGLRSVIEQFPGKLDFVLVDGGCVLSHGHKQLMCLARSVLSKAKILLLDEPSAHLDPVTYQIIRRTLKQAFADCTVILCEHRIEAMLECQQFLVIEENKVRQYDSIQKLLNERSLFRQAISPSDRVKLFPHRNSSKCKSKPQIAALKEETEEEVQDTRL

For the molecule Triton X-100 [reference compound], the “cell viability (MTS), ConjE cells” value in data set [1] was “markedly decreased cell viability”. In data set [2], the “cell viability (MTS), CorE cells” value is on record as “markedly decreased cell viability”.
Turning to `O=C(O)c1ccc(/C=C2\SC(=S)N(c3cccc(C(F)(F)F)c3)C2=O)cc1` [CFTRinh-172, reference compound], the “block of isorhamnetin-induced CFTR Cl- currents (whole-cell)” value on WT-CFTR is “almost completely blocked”. Further, the isorhamnetin-increased tear volume result with CD-1 mice is “completely suppressed”. For the same molecule, the “isorhamnetin-induced hyperpolarization of ocular PD” value on CFTR was “inhibited”.

These data come from paper PMC8070004, “Isorhamnetin Ameliorates Dry Eye Disease via CFTR Activation in Mice” (International Journal of Molecular Sciences, 2021).
